{
  "source": "patent US20180243465A1",
  "about": "“HEMOSTATIC MATERIAL” (BAXTER INTERNATIONAL INC., priority 2015, published 2018)",
  "key": {"[1]": {"system": "whole blood", "assay": "Rotational thromboelastometry (ROTEM) of recalcified citrated whole blood", "type": "cell-based, human", "conditions": "for clotting time (CT) vs saline control / clot formation time (CFT) vs saline control: 1 mM; for clotting time (CT) vs saline control: FIG. 8A; for clot formation time (CFT) vs saline control: FIG. 8B; for clotting time (CT) as % of the physiological CT: whole blood", "description": "ROTEM (TEM Innovation, Germany) was applied to monitor the interactions of platelet-activating polymers and whole blood over time. ROTEM system contains an oscillating sensor pin that is immersed in a temperature-controlled cuvette containing the blood sample. Four measurements can be performed in parallel in the same device. Generally, coagulation of the citrated blood sample is initiated by re-calcification. The formation kinetics of a fibrin clot could be monitored mechanically and calculated by an integrated computer to the typical curves and numerical parameters.\nBlood was collected from three un-medicated and healthy donors using minimal stasis from an antecubital vein through a 21-gauge needle. After discarding the first 3 ml, blood was collected in 3.5 ml tubes (Vacuette; Greiner Bio-One) containing 0.3 ml buffered 3.2% sodium citrate. The samples were kept on a pre-warming stage at 37° C. for at least 10 min prior to analysis and were processed within 3 h. ROTEM analysis of the whole blood sample was initiated by recalcification with the addition of 20 μl of CaCl2 (star-TEM®, 200 mM). Polymer solutions and/or polymer suspensions were added directly to the cuvette immediately after recalcification of the citrated blood and mixed by gently pipetting up and down as previously reported.^[21] The final reaction volume per ROTEM cuvette was 370 μl, consisting of 300 μl citrated whole blood, 20 μl CaCl2 and 50 μl polymer solution or polymer suspension.\nWe next studied the hemostatic efficacy of PVA-TRAP6 in comparison with TRAP6 and PVA-NB using rotational thromboelastometry (ROTEM),^[21, 22] which is a clinical diagnostic tool allowing in situ characterization of viscoelastic properties of blood clot during coagulation. […] Clotting time (CT) refers to the latency until the clot reaches a firmness of 2 mm while maximum clot firmness (MCF) refers to the maximum amplitude of the curve, which indicates the absolute strength of the clot."}, "[2]": {"system": "platelets", "assay": "FACS analysis of platelet activation (CD41/CD62p co-expression)", "type": "cell-based, human", "method": "The blood of two unmedicated and healthy donors was collected and stabilized by sodium citrate. […] Twenty microliter of TRAP6-C solution (14 mg mL^−1) and/or 20 μL of NaCl solution (0.9%) were added as the positive control and the negative control, respectively. The incubated mixture was mixed with 300 μL of 1% paraformaldehyde for 15 min at room temperature. After washing and centrifugation a double immuno-staining was performed using 20 μL of phycoerythrin (PE) labeled monoclonal antibody directed against CD41 and 20 μL of allophycocyanin (APC) labeled monoclonal antibody directed against CD62P. Isotype controls were incubated with mouse IgG antibodies conjugated with APC or PE dye, respectively (all antibodies were purchased from BD Biosciences, Heidelberg, Germany). After 30 min incubation at room temperature the activation state of the platelets was determined using fluorescence flow cytometry. Expression of the platelet activation marker CD62P and the constitutively present platelet marker CD41 were detected using a Beckmann Coulter Cytomics FC-500 equipped with Uniphase Argon ion laser, 488 nm, 20 mW output. Overall 100 000 platelets were measured per sample and analyzed with the Cytomics CXP software. The experiment was repeated twice.\nWe next utilized flow cytometry (FACS) to quantify the extent of platelet activation. Platelets can be distinguished from other blood cells by the constitutive expression of the surface antigen CD41, which recognizes the platelet membrane glycoprotein GpIIb which is non-covalently associated with GpIIIa (the integrin beta 3 chain) to form the GpIIb/IIIa complex. Importantly, the CD62p (P-selectin) membrane glycoprotein is exclusively expressed on activated platelets. The CD62p marker was used to identify the extent of activation in human platelets after incubation with the studied materials (PVA-TRAP6, TRAP6, PVA-NB, and NaCl)."}, "[3]": {"system": "platelets", "assay": "Multiplate platelet aggregation assay in hirudinized whole blood", "type": "cell-based, human", "conditions": "for aggregation area: 0.1 mM TRAP6 equivalent, 6 min measurement", "method": "The principle of Multiplate test is based on the fact that platelets become sticky upon activation, and thus prone to adhere and aggregate on the metal sensor wires in the Multiplate test cuvette. The sensor wires are made of highly conductive copper, which is silver-coated. As activated platelets adhere and aggregate on the sensor wires, the electrical resistance between the wires rises, which can be monitored in real time. For each measurement, 300 μL of saline and 300 μL of hirudinized whole blood was added sequentially to a Multiplate cuvette. After 3 min incubation at 37° C., 20 μL of sample solution was added and at the same time the program started to collect signals. The Multiplate device allows 4 measurements in parallel. Each measurement was performed for 6 min and in duplicate.\nIn order to quantify the extent of platelet activation, we utilized Multiplate assay to investigate the influence of PVA-TRAP6, TRAP6 and PVA-NB on platelet aggregation. The principle of this method is based on the fact that platelets become sticky upon activation, and thus prone to adhere and aggregate on the metal sensor wires in the Multiplate test cuvette. As activated platelets adhere and aggregate on the sensor wires, the electrical resistance between the wires rises, which can be continuously monitored. […] One key parameter of Multiplate assay is aggregation area (in Units), i.e. the area underneath the aggregation curve."}, "[4]": {"system": "C2C12 myoblasts", "quoted_text": "Cytotoxicities of PVA, PVA-NB and PVA-TRAP6 macromer solutions were evaluated via MTT assay. C2C12 cells were cultured in Dulbecco's Modified Eagles Medium (DMEM) supplemented with 5% fetal calf serum (FCS), 1% L-Glutamine, 1% Penicillin/Streptomycin (all from Sigma-Aldrich, Austria). Macromer solutions with three concentrations (5%, 1% and 0.1%) were prepared in DMEM culture medium. C2C12 cells were then seeded in a 96-well plate at a density of 5×10^3 cells per well in 200 μL of culture medium. After 24 h incubation (37° C., 5% CO2), 100 μL of the respective macromer solutions were added to the cells in triplicates. After 24 h incubation, cells were washed twice with sterile PBS before the addition of 100 μL thiazolyl blue tetrazolium bromide (MTT) working solution (5 mg/mL in PBS). After 1 h incubation, the liquid was discarded and 100 μl of DMSO was added to dissolve the formazan crystals. Finally, the absorbance was measured at 540 nm using a microplate reader."}, "[5]": {"system": "platelets", "conditions": "from reference [12]; cited from earlier work"}},
  "note": "No end group written: not given here. PVA‑NB hydrogel particulates = not defined here",
  "data": [
    {"substance": "PEG-TRAP6: PEG-10k-NHS reacted with the N-terminus of TRAP6, unreacted NHS groups blocked with glycine ({PEG 10 kDa}-SFLLRNPNC; also: unreacted NHS groups of PEG blocked with glycine) [reference compound]", "values": [
      {"measurement": "clotting time (CT) vs saline control", "setting": "[1]", "result": "this effect was lost"},
      {"measurement": "clot formation time (CFT) vs saline control", "setting": "[1]", "result": "this effect was lost"}
    ]},
    {"substance": "PVA-TRAP6-P: insoluble crosslinked PVA-NB hydrogel particulates surface-functionalized with TRAP6-Cys peptide (SFLLRNPNC(PVA‑NB hydrogel particulates); reading uncertain)", "values": [
      {"measurement": "clotting time (CT) as % of the physiological CT", "setting": "[1]; particulate suspension 10 wt % in saline", "result": "~50", "unit": "%"},
      {"measurement": "platelet activation vs soluble TRAP6 control (FACS)", "setting": "[2]; particulates", "result": "comparable extent as soluble TRAP6 control"},
      {"measurement": "percentage of activated platelets (CD41+/CD62p+)", "setting": "[2]; particulates, 15 min incubation, whole blood", "result": "~55", "unit": "%"}
    ]},
    {"substance": "PVA-TRAP6: water-soluble conjugate of cysteine-containing TRAP6 peptide (SFLLRNPNC) on PVA-norbornene backbone by thiol-ene photo-click conjugation (SFLLRNPNC(PVA‑norbornene 22 kDa))", "values": [
      {"measurement": "clotting time (CT)", "setting": "[1]; 0.1 mM TRAP6 equivalent, compared with TRAP6 0.1 mM", "result": "very comparable to that of TRAP6"},
      {"measurement": "maximum clot firmness (MCF)", "setting": "[1]; 0.1 mM, compared with TRAP6 control", "result": "relatively less than that of TRAP6 control"},
      {"measurement": "clotting time (CT) vs saline control", "setting": "[1]", "result": "significantly shorten"},
      {"measurement": "clot formation time (CFT) vs saline control", "setting": "[1]", "result": "significantly shorten"},
      {"measurement": "clotting time (CT) as % of the physiological CT", "setting": "[1]; 0.1% PVA-TRAP6 solution", "result": "~45", "unit": "%"},
      {"measurement": "optimal hemostatic concentration", "setting": "[1]; peptide concentrations tested 0.01, 0.1, 1 mM, CT", "result": 0.1, "unit": "mM"},
      {"measurement": "platelet aggregation curve", "setting": "[3]; 0.1 mM", "result": "comparable to that of TRAP6"},
      {"measurement": "aggregation area", "setting": "[3]", "result": 130, "unit": "U"},
      {"measurement": "total platelet aggregation area", "setting": "[3]; 1 mM, FIG. 9A", "result": "comparable to that of TRAP6"},
      {"measurement": "platelet activation (CD41/CD62P co-expression)", "setting": "[2]; 1 mM, FIG. 9B", "result": "very similar level as TRAP6 control"},
      {"measurement": "CD41/CD62p co-expression (CD62p expression in CD41 positive cells)", "setting": "[2]; 15 min incubation, 0.1 mM, soluble system", "result": "~80", "unit": "%"},
      {"measurement": "cytotoxicity (MTT assay)", "setting": "[4]", "result": "nontoxic"}
    ]},
    {"substance": "SFLLRN [TRAP6, reference compound]", "values": [
      {"measurement": "clotting time (CT) vs saline control", "setting": "[1]", "result": "significant decrease"},
      {"measurement": "clot formation time (CFT) vs saline control", "setting": "[1]", "result": "significant decrease"},
      {"measurement": "dose influence on CT", "setting": "[1]; peptide concentrations 0.01, 0.1, 1 mM", "result": "no significant dose influences"},
      {"measurement": "aggregation area", "setting": "[3]", "result": 147, "unit": "U"},
      {"measurement": "effective TRAP6-concentration for platelet activation", "setting": "[5]", "result": "5 to 100", "unit": "µM"}
    ]}
  ]
}
